Measured values reported in PubChem BioAssay (NCI).
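Briefly, cells in 96-well plates were exposed to five compound concentrations for 48 h, and endpoints were estimated by linear interpolation. TGI: total growth inhibition.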

Tests used:
Test in all cases: inhibition of tumour cell growth, NCI panel, 48 h
[1] = tested on: SF-539 CNS
[2] = tested on: HCT-15 colon
[3] = tested on: OVCAR-8 ovarian
[4] = tested on: UO-31 renal
[5] = tested on: COLO 205 colon
[6] = tested on: ACHN renal
[7] = tested on: KM12 colon
[8] = tested on: HCT-116 colon
[9] = tested on: SK-OV-3 ovarian
[10] = tested on: T-47D breast
[11] = tested on: HOP-62 NSCLC
[12] = tested on: NCI-H522 lung
[13] = tested on: IGROV1 ovarian
[14] = tested on: HS 578T breast
[15] = tested on: 786-0 renal
[16] = tested on: CCRF-CEM leukemia
[17] = tested on: MCF7 breast
[18] = tested on: M14 melanoma
[19] = tested on: NCI-H23 lung
[20] = tested on: SN12C renal
[21] = tested on: LOX IMVI melanoma
[22] = tested on: HOP-92 NSCLC
[23] = tested on: MOLT-4 leukemia
[24] = tested on: OVCAR-4 ovarian
[25] = tested on: SK-MEL-2 melanoma
[26] = tested on: HL-60(TB) leukemia
[27] = tested on: CAKI-1 renal
[28] = tested on: RXF 393 renal
[29] = tested on: SW-620 colon
[30] = tested on: TK-10 renal
[31] = tested on: SNB-19 CNS
[32] = tested on: SF-268 CNS
[33] = tested on: SF-295 CNS
[34] = tested on: UACC-62 melanoma
[35] = tested on: K-562 leukemia
[36] = tested on: OVCAR-3 ovarian
[37] = tested on: OVCAR-5 ovarian
[38] = tested on: NCI/ADR-RES ovarian
[39] = tested on: MDA-MB-435
[40] = tested on: NCI-H460 lung
[41] = tested on: EKVX NSCLC
[42] = tested on: MDA-N
[43] = tested on: SK-MEL-5 melanoma
[44] = tested on: U251 CNS
[45] = tested on: A549 NSCLC
[46] = tested on: BT-549 breast
[47] = tested on: PC-3 prostate
[48] = tested on: SR leukemia
[49] = tested on: MDA-MB-231 breast
[50] = tested on: SK-MEL-28 melanoma
[51] = tested on: HCC-2998 colon
[52] = tested on: UACC-257 melanoma
[53] = tested on: DU-145 prostate
[54] = tested on: RPMI-8226 leukemia
[55] = tested on: NCI-H226 lung
[56] = tested on: HT29 colon

Q: How did the TGI [1] turn out when `COc1ccccc1/C=C1\Sc2scc(-c3ccc(O)c(O)c3)[n+]2C1=O` was run?
A: 55.8 µM

Q: What about the TGI [2] of the same compound?
A: 30.6 µM

Q: What about the TGI [3] of the same compound?
A: > 100 µM

Q: And the TGI [4]?
A: 43.2 µM

Q: What about the TGI [5] of the same compound?
A: 37.2 µM

Q: And the TGI [6]?
A: 31 µM

Q: And the TGI [7]?
A: > 100 µM

Q: What about the TGI [8] of the same compound?
A: 31.3 µM

Q: What about the TGI [9] of the same compound?
A: 97 µM

Q: What about the TGI [10] of the same compound?
A: 42.5 µM

Q: And the TGI [11]?
A: > 100 µM

Q: And the TGI [12]?
A: 24.8 µM

Q: What about the TGI [13] of the same compound?
A: 34.2 µM

Q: What about the TGI [14] of the same compound?
A: > 100 µM

Q: What about the TGI [15] of the same compound?
A: 29.2 µM

Q: What about the TGI [16] of the same compound?
A: 8.64 µM

Q: And the TGI [17]?
A: 91.5 µM

Q: And the TGI [18]?
A: 30.6 µM

Q: What about the TGI [19] of the same compound?
A: 73.5 µM

Q: What about the TGI [20] of the same compound?
A: 67.5 µM

Q: What about the TGI [21] of the same compound?
A: 33.5 µM

Q: What about the TGI [22] of the same compound?
A: 38.4 µM

Q: And the TGI [23]?
A: 38.9 µM

Q: And the TGI [24]?
A: 81.3 µM

Q: And the TGI [25]?
A: 64.1 µM

Q: And the TGI [26]?
A: 7.11 µM

Q: And the TGI [27]?
A: 29 µM

Q: And the TGI [28]?
A: 56.9 µM

Q: What about the TGI [29] of the same compound?
A: 31.6 µM

Q: What about the TGI [30] of the same compound?
A: > 100 µM

Q: And the TGI [31]?
A: > 100 µM

Q: And the TGI [32]?
A: > 100 µM

Q: And the TGI [33]?
A: > 100 µM

Q: What about the TGI [34] of the same compound?
A: 32.5 µM

Q: What about the TGI [35] of the same compound?
A: 42.1 µM

Q: What about the TGI [36] of the same compound?
A: 36.7 µM

Q: What about the TGI [37] of the same compound?
A: 85.7 µM

Q: What about the TGI [38] of the same compound?
A: > 100 µM

Q: What about the TGI [39] of the same compound?
A: 86.2 µM

Q: What about the TGI [40] of the same compound?
A: 38.3 µM

Q: And the TGI [41]?
A: > 100 µM

Q: What about the TGI [42] of the same compound?
A: 67.1 µM

Q: What about the TGI [43] of the same compound?
A: 44.1 µM

Q: What about the TGI [44] of the same compound?
A: > 100 µM

Q: What about the TGI [45] of the same compound?
A: > 100 µM

Q: And the TGI [46]?
A: 32.6 µM

Q: And the TGI [47]?
A: > 100 µM

Q: What about the TGI [48] of the same compound?
A: 60.3 µM

Q: What about the TGI [49] of the same compound?
A: 45 µM

Q: And the TGI [50]?
A: 33.1 µM

Q: What about the TGI [51] of the same compound?
A: 31.6 µM

Q: And the TGI [52]?
A: 70.5 µM

Q: What about the TGI [53] of the same compound?
A: 57.4 µM

Q: What about the TGI [54] of the same compound?
A: 45.2 µM

Q: And the TGI [55]?
A: > 100 µM

Q: And the TGI [56]?
A: 41.4 µM
